Key:
KRAS G12D = KRAS G12D (Homo sapiens, UniProt P01116, G12D); experiment: GDP-GTP exchange assay (bodipy-GDP/GppNHp, SOS1), KRAS G12D; format: biochemical; conditions: bodipy-loaded KRAS G12D 2.5 nM, 4 h pre-incubation; value for the most potent isomer quoted for certain compounds; read-out: G12D (KRAS G12D exchange assay IC50)
KRAS G12V = KRAS G12V (Homo sapiens, UniProt P01116, G12V); experiment: GDP-GTP exchange assay (bodipy-GDP/GppNHp, SOS1), KRAS G12V; format: biochemical; conditions: KRAS G12V mutant; value for the most potent isomer quoted for certain compounds; read-out: G12V (KRAS G12V exchange assay IC50)
Chain of KRAS G12V (P01116 1-188 isoform P01116-2 G12V): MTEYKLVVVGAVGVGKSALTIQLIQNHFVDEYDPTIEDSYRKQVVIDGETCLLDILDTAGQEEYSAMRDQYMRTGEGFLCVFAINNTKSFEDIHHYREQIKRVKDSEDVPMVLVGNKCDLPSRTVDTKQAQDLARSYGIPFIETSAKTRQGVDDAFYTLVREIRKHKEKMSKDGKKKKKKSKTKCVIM

Chain of KRAS G12D (P01116 1-188 isoform P01116-2 G12D): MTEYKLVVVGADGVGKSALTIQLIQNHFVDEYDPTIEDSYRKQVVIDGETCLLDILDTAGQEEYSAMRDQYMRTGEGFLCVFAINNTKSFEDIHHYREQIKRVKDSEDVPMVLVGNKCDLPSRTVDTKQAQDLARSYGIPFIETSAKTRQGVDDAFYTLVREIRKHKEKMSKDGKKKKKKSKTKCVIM

Row | IC50 (KRAS G12D) [nM] | IC50 (KRAS G12V) [nM] | SMILES
1 | ≤ 100 | ≤ 100 | CCOc1ncccc1O[C@H]1C[C@H](c2cc3c(C)nc4c(F)c(-c5cccc(Cl)c5Cl)c(CCC#N)cc4c3n2[C@H]2[C@H]3CN[C@@H]2C3)N(C(=O)C2CC2)C1 [Example 443]
2 | ≤ 100 | ≤ 100 | Cc1nc2c(F)c(-c3cccc(Cl)c3Cl)c(CCC#N)cc2c2c1cc([C@H]1C[C@H](Oc3ccnc4c3CCO4)CN1C(=O)C1CC1)n2[C@H]1[C@H]2CN[C@@H]1C2 [Example 329]
3 | ≤ 100 | ≤ 100 | Cc1nnn([C@H]2C[C@H](c3cc4c(C)nc5c(F)c(-c6cccc(Cl)c6Cl)c(CCC#N)cc5c4n3[C@H]3[C@H]4CN[C@@H]3C4)N(C(=O)C3CC3)C2)c1CO [Example 327]
4 | ≤ 100 | ≤ 100 | Cc1nc2c(F)c(-c3cccc(Cl)c3Cl)c(CCC#N)cc2c2c1cc([C@H]1C[C@H](n3cc(C4CC4)cn3)CN1C(=O)C1CC1)n2[C@H]1[C@H]2CN[C@@H]1C2 [Example 429]
5 | ≤ 100 | ≤ 100 | Cc1nc2c(F)c(-c3cccc(Cl)c3Cl)c(CCC#N)cc2c2c1cc([C@H]1C[C@H](Oc3cc(C(F)(F)F)nn3C)CN1C(=O)C1CC1)n2[C@H]1[C@H]2CN[C@@H]1C2 [Example 375]
6 | ≤ 100 | ≤ 100 | CCOC(=O)c1cn([C@H]2C[C@H](c3cc4c(C)nc5c(F)c(-c6cccc(Cl)c6Cl)c(CCC#N)cc5c4n3[C@H]3[C@H]4CN[C@@H]3C4)N(C(=O)C3CC3)C2)nn1 [Example 394]
7 | ≤ 100 | ≤ 100 | Cc1nc2c(F)c(-c3cccc(Cl)c3Cl)c(CCC#N)cc2c2c1cc([C@H]1C[C@H](n3cc(C4(CF)CC4)nn3)CN1C(=O)C1CC1)n2[C@H]1[C@H]2CN[C@@H]1C2 [Example 381]
8 | ≤ 100 | ≤ 100 | Cc1nc2c(F)c(-c3cccc(Cl)c3Cl)c(CCC#N)cc2c2c1cc([C@H]1C[C@H](Oc3cccnc3OCC(F)(F)F)CN1C(=O)C1CC1)n2[C@H]1[C@H]2CN[C@@H]1C2 [Example 446]
9 | ≤ 100 | ≤ 100 | Cc1nc2c(F)c(-c3cccc(Cl)c3Cl)c(CCC#N)cc2c2c1cc([C@H]1C[C@H](Oc3cnn(CC(F)F)c3)CN1C(=O)C1CC1)n2[C@H]1[C@H]2CN[C@@H]1C2 [Example 377]

Second part, the molecule before the results:

Row | SMILES | IC50 (KRAS G12D) [nM] | IC50 (KRAS G12V) [nM]
10 | Cc1nc2c(F)c(-c3cccc(Cl)c3Cl)c(CCC#N)cc2c2c1cc([C@H]1C[C@H](Oc3cccc(C4CC4)c3)CN1C(=O)C1CC1)n2[C@H]1[C@H]2CN[C@@H]1C2 [Example 169] | ≤ 100 | ≤ 100
11 | Cc1nc2c(F)c(-c3cccc(Cl)c3Cl)c(CCC#N)cc2c2c1cc([C@H]1C[C@H](n3cc(C45CC(N)(C4)C5)nn3)CN1C(=O)C1CC1)n2[C@H]1[C@H]2CN[C@@H]1C2 [Example 275] | ≤ 100 | ≤ 100
12 | Cc1nc2c(F)c(-c3cccc(Cl)c3Cl)c(CCC#N)cc2c2c1cc([C@H]1C[C@H](Oc3cc(Cl)ccn3)CN1C(=O)C1CC1)n2[C@H]1[C@H]2CN[C@@H]1C2 [Example 297] | ≤ 100 | ≤ 100
13 | Cc1nc2c(F)c(-c3cccc(Cl)c3Cl)c(CCC#N)cc2c2c1cc([C@H]1C[C@H](OCc3ccc(C#N)cc3)CN1C(=O)C1CC1)n2[C@H]1[C@H]2CN[C@@H]1C2 [Example 152] | ≤ 100 | ≤ 100
14 | Cc1nc2c(F)c(-c3cccc(Cl)c3Cl)c(CCC#N)cc2c2c1cc([C@H]1C[C@H](OCc3ncco3)CN1C(=O)C1CC1)n2[C@H]1[C@H]2CN[C@@H]1C2 [Example 104] | ≤ 100 | 100 to 1000
15 | Cc1nc2c(F)c(-c3cccc(Cl)c3Cl)c(CCC#N)cc2c2c1cc([C@H]1C[C@H](OCc3ccnn3C(F)(F)F)CN1C(=O)C1CC1)n2[C@H]1[C@H]2CN[C@@H]1C2 [Example 312] | ≤ 100 | ≤ 100
16 | Cc1nc2c(F)c(-c3cccc(Cl)c3Cl)c(CCC#N)cc2c2c1cc([C@H]1C[C@H](Oc3ccc(C#N)cc3F)CN1C(=O)C1CC1)n2[C@H]1[C@H]2CN[C@@H]1C2 [Example 291] | ≤ 100 | ≤ 100
17 | Cc1nc2c(F)c(-c3cccc(Cl)c3Cl)c(CCC#N)cc2c2c1cc([C@H]1C[C@H](OCc3ccn(C)n3)CN1C(=O)C1CC1)n2[C@H]1[C@H]2CN[C@@H]1C2 [Example 101] | ≤ 100 | ≤ 100
18 | COc1cccc(CO[C@H]2C[C@H](c3cc4c(C)nc5c(F)c(-c6cccc(Cl)c6Cl)c(CCC#N)cc5c4n3[C@H]3[C@H]4CN[C@@H]3C4)N(C(=O)C3CC3)C2)n1 [Example 267] | ≤ 100 | ≤ 100
19 | Cc1nc2c(F)c(-c3cccc(Cl)c3Cl)c(CCC#N)cc2c2c1cc([C@H]1C[C@H](OCc3cnnn3C)CN1C(=O)C1CC1)n2[C@H]1[C@H]2CN[C@@H]1C2 [Example 106] | ≤ 100 | ≤ 100
20 | Cc1nc2c(F)c(-c3cccc(Cl)c3Cl)c(CCC#N)cc2c2c1cc([C@H]1C[C@H](OC3CCCC3)CN1C(=O)C1CC1)n2[C@H]1[C@H]2CN[C@@H]1C2 [Example 238] | ≤ 100 | ≤ 100
21 | Cc1nc2c(F)c(-c3cccc(Cl)c3Cl)c(CCC#N)cc2c2c1cc([C@H]1C[C@H](OCc3cc(F)ccc3C#N)CN1C(=O)C1CC1)n2[C@H]1[C@H]2CN[C@@H]1C2 [Example 157] | ≤ 100 | ≤ 100
22 | Cc1nc2c(F)c(-c3cccc(Cl)c3Cl)c(CCC#N)cc2c2c1cc([C@H]1C[C@H](Oc3ccc(N)nc3)CN1C(=O)C1CC1)n2[C@H]1[C@H]2CN[C@@H]1C2 [Example 296] | ≤ 100 | ≤ 100
23 | COc1nccc(C#N)c1O[C@H]1C[C@H](c2cc3c(C)nc4c(F)c(-c5cccc(Cl)c5Cl)c(CCC#N)cc4c3n2[C@H]2[C@H]3CN[C@@H]2C3)N(C(=O)C2CC2)C1 [Example 298] | ≤ 100 | ≤ 100
24 | Cc1csnc1CO[C@H]1C[C@H](c2cc3c(C)nc4c(F)c(-c5cccc(Cl)c5Cl)c(CCC#N)cc4c3n2[C@H]2[C@H]3CN[C@@H]2C3)N(C(=O)C2CC2)[C@@H]1C [Example 232] | ≤ 100 | ≤ 100
25 | Cc1nc2c(F)c(-c3cccc(Cl)c3Cl)c(CCC#N)cc2c2c1cc([C@H]1C[C@H](Oc3cccc(Cl)c3)CN1C(=O)C1CC1)n2[C@H]1[C@H]2CN[C@@H]1C2 [Example 161] | ≤ 100 | ≤ 100
26 | COC(=O)c1cccc(O[C@H]2C[C@H](c3cc4c(C)nc5c(F)c(-c6cccc(Cl)c6Cl)c(CCC#N)cc5c4n3[C@H]3[C@H]4CN[C@@H]3C4)N(C(=O)C3CC3)C2)c1 [Example 189] | ≤ 100 | ≤ 100
27 | COc1ccc(CO[C@H]2C[C@H](c3cc4c(C)nc5c(F)c(-c6cccc(Cl)c6Cl)c(CCC#N)cc5c4n3[C@H]3[C@H]4CN[C@@H]3C4)N(C(=O)C3CC3)C2)c(C#N)c1 [Example 252] | ≤ 100 | ≤ 100
28 | Cc1nc2c(F)c(-c3cccc(Cl)c3Cl)c(CCC#N)cc2c2c1cc([C@H]1C[C@H](n3c(=O)n(C)c4ccccc43)CN1C(=O)C1CC1)n2[C@H]1[C@H]2CN[C@@H]1C2 [Example 321] | ≤ 100 | 100 to 1000
29 | Cc1nc2c(F)c(-c3cccc(Cl)c3Cl)c(CCC#N)cc2c2c1cc([C@H]1C[C@H](Oc3cnccc3C#N)CN1C(=O)C1CC1)n2[C@H]1[C@H]2CN[C@@H]1C2 [Example 302] | ≤ 100 | ≤ 100
30 | Cc1nc2cc(O[C@H]3C[C@H](c4cc5c(C)nc6c(F)c(-c7cccc(Cl)c7Cl)c(CCC#N)cc6c5n4[C@H]4[C@H]5CN[C@@H]4C5)N(C(=O)C4CC4)C3)ccc2s1 [Example 132] | ≤ 100 | ≤ 100

Source: patent US20240390340A1 (INCYTE CORPORATION, priority 2023, published 2024)
